In PubChem BioAssay AID2060620 (Molecular Pharmacology Branch, DTP, NCI, 2025):
Several values for one entry are separate records, joined by “and”; a condition that tells them apart may be missing. Identical values can stand only once.

Tested on: 328373-195-R-J1-PDC complex spheroids, viability % test/control
Assay: Anticancer human tumor 328373-195-R-J1-PDC patient-derived head and neck squamous carcinoma cell line growth inhibition [CLK]
Details: for viability, T/C: stronger effect = lower value
Source text: A high-throughput screen of multi-cell type tumor spheroids was designed to identify active combinations of […] and targeted small molecules. Complex spheroids include a stromal component modeled by human endothelial cells (HUVEC) and fibroblasts modeled by human mesenchymal stem cells (MSCs). The concentration ranges selected for each drug and investigational agent were based upon clinically achievable concentrations if the clinical Cmax of the agent was known.
Compounds. The drugs and investigational agents: cirtuvivint (SM08502; NSC835563), CC-671 (NSC850746), vemurafenib (NSC761431), tapotoclax (NSC804041), sotorasib (NSC818433), adagrasib (NSC831453), MRTX-1133 (NSC836407), BAY2416964 (NSC825713), copanlisib (NSC816437), inavolisib (NSC800729), abemaciclib (NSC768073), osimertinib (NSC779217), entinostat (NSC756642), eltanexor (KPT-8602, NSC794443), venetoclax (NSC766270), ceralasertib (NSC777638), bortezomib (NSC756655), olaparib (NSC753686), talazoparib (NSC767125), alisertib (NSC759677), peposertib (NSC802822), gemcitabine (NSC613327), 5-fluorouracil (NSC19893), SN-38 (NSC673596), oxaliplatin (NSC266046), paclitaxel (NSC125973), and doxorubicin (NSC123127), were obtained from the National Cancer Institute (NCI) Developmental Therapeutics Program Chemical Repository. The FDA-approved anticancer drug set is available from the Developmental Therapeutics Program at https://dtp.cancer.gov/organization/dscb/obtaining/available plates.htm. […] The stock solutions were prepared in dimethyl sulfoxide (DMSO, Sigma-Aldrich, St. Louis, MO, cat. D2650), except for the platinum complexes which were prepared in saline (Quality Biological, Gaithersburg, MD, cat. 114-055-101), at 800-fold the tested concentration and stored at -70 degrees C prior to their use. All drugs and investigational agents were tested over a range starting from a high concentration at or near the clinical Cmax and decreasing in half-log increments. If the clinical Cmax for an agent had not been determined, the highest concentration tested was 10 microM.
Cell Culture. All cells were maintained in an incubator at 37 degrees C and 5% CO2 with 95% humidity. The PDC lines were cultured according to standard operating procedures established by the NCI PDMR. Briefly, all PDCs were thawed and cultured in Matrigel-coated flasks prepared with a working solution of 1X Ham's F-12 nutrient mix, without supplementation (Invitrogen, Waltham, MA, cat. 11765054), 100 U/mL penicillin-streptomycin (Invitrogen, cat. 15140122), and 2.5% Matrigel (Corning Inc., Corning, NY, cat. 354248) for the first three passages. The 947758-054-R-J2-PDC line was cultured in 6B/Colon 1A media, which includes advanced DMEM/F-12 (Thermo Fisher Scientific, cat. 12634028), 10 mM HEPES (Thermo Fisher Scientific, cat. 15630080), 1X GlutaMAX supplement (Thermo Fisher Scientific, cat. 35050061), 0.1 mg/mL primocin (InvivoGen, cat. ant-pm-2), 10% defined fetal bovine serum, heat inactivated (HyClone Laboratories Inc., cat. SH30070.03HI), 1.25 mM N-Acetyl-L-cysteine (Sigma-Aldrich, cat. A9165), 10 mM nicotinamide (Sigma-Aldrich, cat. N0636), 1X B-27 supplement (Thermo Fisher Scientific, cat. 17504044), 1X N-2 supplement (Thermo Fisher Scientific, cat. 17502048), and 10 microM Y-27632 dihydrochloride (Tocris Bioscience, cat. 1254). The 876862-298-R-J1-PDC was cultured in 6E media, which includes all 6B/Colon 1A media components plus 50% L-WRN conditioned media (ATCC, cat. CRL-3276), 50 ng/mL recombinant human EGF recombinant protein (hEGF; Thermo Fisher Scientific, cat. PHG0311), 10 ng/mL recombinant human fibroblast growth factor 10 (hGFG-10; PeproTech, cat. 100-26), 1 ng/mL recombinant human fibroblast growth factor 2 (hFGF-2; PeproTech, cat. 100-18B), and 1 µM prostaglandin E2 (PGE2; Tocris, cat. 2296). The 227483-062-R1-J1-PDC line was cultured in Panc media, containing all 6E components except hFGF-2, with the addition of 500 nM SB-431542 (Selleckchem, cat. S1067) and 10 nM gastrin (Tocris, cat. 3006). […]
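Note: spheroids exposed to the agents for 7 days.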

| Compound | viability, T/C (compound 0.0316 µM) | viability, T/C (compound 0.1 µM) | viability, T/C (compound 0.316 µM) | viability, T/C (compound 1 µM) | viability, T/C (compound 3.16 µM) | viability, T/C (compound 10 µM) | IC50 (curve of compound) | viability, T/C (compound 0.00316 µM) | viability, T/C (compound 0.01 µM) | also measured |
| --- | --- | --- | --- | --- | --- | --- | --- | --- | --- | --- |
| C#Cc1c(F)ccc2cc(O)cc(-c3ncc4c(N5CC6CCC(C5)N6)nc(OCC56CCCN5CC(F)C6)nc4c3F)c12 (stereo not given) | 99.7% and 97.3% | 85.4% and 93.6% | 108% and 98.6% | 96.1% and 92.8% | 118% and 111% | 89.6% and 94.6% | > 10 µM | – | – | – |
| C=C(F)C(=O)N1CCN(c2nc(OCC3CCCN3C)nc3c2CCN(c2cccc4cccc(Cl)c24)C3)CC1CC#N (stereo not given) | 94.1% and 94.7% | 89.7% and 93.1% | 77.7% and 114% | 90.5% and 84.6% | 53.7% and 59.2% | 0.17% and 3% | 3.42 µM and 3.75 µM | – | – | – |
| C=CC(=O)N1CCN(c2nc(=O)n(-c3c(C)ccnc3C(C)C)c3nc(-c4c(O)cccc4F)c(F)cc23)C(C)C1 (stereo not given) | 84.3% and 93.1% | 89.4% and 95.1% | 93.2% and 106% | 98.8% and 87.5% | 96.5% and 100% | 77.4% and 74.5% | > 10 µM | – | – | – |
| C=CC(=O)Nc1cc(Nc2nccc(-c3cn(C)c4ccccc34)n2)c(OC)cc1N(C)CCN(C)C | – | – | – | – | – | – | > 0.3 µM | – | – | viability, T/C (compound 0.000949 µM): 97.9% and 96%; viability, T/C (compound 0.003 µM): 96.8% and 91.2%; viability, T/C (compound 0.00949 µM): 94% and 91.6%; viability, T/C (compound 0.03 µM): 94.2% and 92.4%; viability, T/C (compound 0.0949 µM): 83.8% and 91.1%; viability, T/C (compound 0.3 µM): 91.3% and 84.8% |
| CC(C)CC(NC(=O)C(Cc1ccccc1)NC(=O)c1cnccn1)B(O)O (stereo not given) | – | – | – | – | – | – | 0.00176 µM and 0.00186 µM | – | – | viability, T/C (compound 0.000949 µM): 97.8% and 115%; viability, T/C (compound 0.003 µM): 8.65% and 3.9%; viability, T/C (compound 0.00949 µM): 1.43% and 0.2%; viability, T/C (compound 0.03 µM): 1.56% and 0.3%; viability, T/C (compound 0.0949 µM): 0.16%; viability, T/C (compound 0.3 µM): 0.85% and 0.2% |
| CCCS(=O)(=O)Nc1ccc(F)c(C(=O)c2c[nH]c3ncc(-c4ccc(Cl)cc4)cc23)c1F | 99.5% and 99.4% | 91.2% and 92.6% | 92.8% and 95.1% | 91.2% and 83.6% | 92.6% and 94.8% | 82.3% and 109% | > 10 µM | – | – | – |
| CCN1CCN(Cc2ccc(Nc3ncc(F)c(-c4cc(F)c5nc(C)n(C(C)C)c5c4)n3)nc2)CC1 | 82.7% and 83.1% | 77.4% and 78.6% | 64.9% and 69.7% | 59.8% and 52.3% | – | – | > 1 µM | 101% and 89.8% | 77.4% and 78.7% | – |
| CCc1c2c(nc3ccc(O)cc13)-c1cc3c(c(=O)n1C2)COC(=O)[C@]3(O)CC | 1.41% and 1.91% | 3.19% and 1.33% | 1.53% and 0.43% | 2.07% and 1.46% | – | – | < 0.00316 µM | 12.7% and 12.1% | 3.27% and 1.07% | – |
| CN1CCN(c2cc(C(=O)Nc3cc4cc(-c5cnn(C)c5)ccc4cn3)ccn2)CC1 | 102% [middle of 12 runs] | 87.1% [middle of 12 runs] | 30.6% [middle of 12 runs] | 2.6% [middle of 12 runs] | 1.02% [middle of 12 runs] | 0.18% [middle of 11 runs] | – | – | – | IC50 (compound alone, run of 08/14/2023): 209 nM [middle of 12 runs] |
| COC1C=CCC(C)C(C)S(=O)(=O)NC(=O)c2ccc3c(c2)N(CC2CCC21)CC1(CCCc2cc(Cl)ccc21)CO3 (stereo not given) | 93.3% and 98.1% | 90.6% and 96.7% | 101% and 103% | 96.7% and 93.2% | 77.2% and 69.3% | – | 8.47 µM and 4.4 µM | – | – | – |
| COc1c(OCCCN2CCOCC2)ccc2c3n(c(=NC(=O)c4cnc(N)nc4)nc12)CCN3 | 64.5% and 74.9% | 51.9% and 66.5% | 19.2% and 24.7% | 10.7% and 7.66% | – | – | 0.0801 µM and 0.152 µM | 98.7% and 88.6% | 87.2% and 84.5% | – |
| Cn1ncnc1[C@H]1c2n[nH]c(=O)c3cc(F)cc(c23)N[C@@H]1c1ccc(F)cc1 | 95.3% and 107% | 73% and 77.7% | – | – | – | – | > 0.1 µM | 90.6% and 93.4% | 84.6% and 92.9% | viability, T/C (compound 0.000316 µM): 98.5% and 113%; viability, T/C (compound 0.001 µM): 72.2% and 90.1% |
| NC(=O)C(=Cn1cnc(-c2cc(C(F)(F)F)cc(C(F)(F)F)c2)n1)c1cncnc1 | – | – | – | – | – | – | 0.0211 µM and 0.0198 µM | – | – | viability, T/C (compound 0.00949 µM): 76.3% and 71.8%; viability, T/C (compound 0.03 µM): 38.3% and 37.8%; viability, T/C (compound 0.0949 µM): 2.22% and 0.66%; viability, T/C (compound 0.3 µM): 1.05% and 0.37%; viability, T/C (compound 0.949 µM): 0.16% and 0.11%; viability, T/C (compound 3 µM): 1.51% and 0.06% |
